According to US20160193240A1, “Ulmoside-A: Useful For Prevention Or Cure Of Metabolic Diseases” (COUNCIL OF SCIENTIFIC & INDUSTRIAL RESEARCH, priority 2013, published 2016):

Key:
[1] = tested on: Mouse stromal vascular fractions (SVF); experiment: Brown adipose marker expression and mitochondrial copy number in mouse stromal vascular fractions; type: cell-based
Description: B. Mouse stromal vascular fractions (SVF) isolated from epididymal fat pads using collagenase digestion was differentiated in presence or absence of 10 nM ULMA and were analyzed for indicated mRNA expressions. **p<0.01, ***p<0.001 as determined by two tailed unpaired student's t-test.
(§1) C. Cells from identical set of experiments as described in FIGS. 5A and 5B or human SVFs prepared by collagenase digestions were analyzed by western blot analysis for determination of UCP-1, UCP-2 and PGC-1α protein level. Beta-actin was used as a loading control. Data is representative of three independent experiments.
D. Mouse SVFs differentiated in presence or absence of 10 nM ULMA were evaluated for mitochondrial copy number. Total cellular DNA was isolated from these cells by standard procedure (using a genomic DNA isolation kit; Macherey Nagel; according to manufacturer's instructions) and the mitochondrial DNA content was measured by QRT-PCR based measurement of mitochondrial cytochrome b (Cytb) by qPCR and normalized with genomic glycerol three phosphate dehydrogenase DNA level. Data represent mean±SEM from three independent experiments performed in triplicates. **p<0.01 as determined by two tailed unpaired student's t-test.
Mouse stromal vascular fractions (SVF) from epididymal fat pad were prepared using standard collagenase digestion method. Human SVF was prepared from human lipoaspirates (subcutaneous) collected from an obese individual undergoing liposuction following approval of Institutional Ethical Committee. To isolate SVFs, epidymal fat pads tissue or lipoaspirates were washed 6× in PBS and then were dispensed in tissue culture flasks. 0.2% sterile collagenase (Sigma) solution containing 1× antibiotic-antimycotic (Invitrogen) was then added to the adipose and the flasks were shaken vigorously for 10 seconds. The flasks were then incubated at 37° C. on a shaker for 2 hours with manual shaking of the flasks for 5-10 seconds every 15 min. After completion of digestion, FBS was added to the final concentration of 10% to the flasks, mixed and the collagenase digested tissue were then dispensed in 50 ml conical tubes and were centrifuged at 400 g for 10 min at room temp. The supernatant was discarded and the pellets constituting the SVFs were then reconstituted in culture medium (DMEM/F12 50:50+10% FBS) and plated in T25 tissue culture flasks and cultured for further experiments.
The SVFs were differentiated as for 3T3L-1 (described above), in presence of ULMA or vehicle (10 d for mouse SVF and 21 d for human SVF), following which they were lysed and used for QPCR or western blot analysis.
(§2) For western blot-based determination of UCP-1, UCP-2 and PGC-1α protein level, cells from an identical set of experiment were lysed and western blotted with UCP-1, UCP-2 (Abcam), PGC-1α(Calbiochem), or beta-actin (cell signaling technology; used as a loading control) as described above.

db/db mice = experiment: Body weight of db/db mice; type: in vivo, mouse; conditions: 5 mg/kg ULMA for 15 d
Description: 8 week old db/db mice were treated with vehicle (V; 1% gum acacia) or with 5 mg/kg ULMA for 15 days and the body weights were measured on 0th, 7th, 10th, or 15th day of treatment and plotted. ** p<0.01, n=6.
8 week old female db/db mice (n=6) weighing 40-50 g were divided into 2 groups and maintained as above. Control groups received vehicle (1% gum acacia) and ULMA groups received 5 mg/kg bw ULMA in 1% gum acacia for […]. Body weight and blood glucose were measured at the beginning and end of the studies.

[2] = tested on: 3T3L-1 mouse pre-adipocyte cells; experiment: Brown adipose marker expression in differentiating 3T3L-1 preadipocytes; type: cell-based
Description: A. 3T3L-1 mouse preadipocyte cells in 6 well plates were allowed to reach full confluence. Two days following confluence (designated as day 0), the growth medium was replaced with differentiation medium (DM). After two days of incubation in DM, this medium was replaced with insulin medium (Ins) and the cells were incubated in Ins for 2 days and then the insulin medium was replaced with growth medium (GM) and the cells were cultured for a total of 10 days (starting from day 0). The cells were treated with vehicle (0.1% DMSO) or ULMA (10 nM in 0.1% DMSO) on day 0 and the total treatment duration was 10 days. In all cases, medium was replaced with fresh corresponding medium every day containing vehicle (0.1% DMSO) or 10 nM ULMA (in DMSO; final DMSO concentration in all wells 0.1% vol/vol). After a total of 10 days from day 0, cells were washed in cold PBS and RNA was extracted using trizol reagent using standard procedure following which cDNA synthesis was done and UCP-1, UCP-2, PGC-1α and PRDM16 expression were determined using QRT-PCR, normalized with Beta-actin mRNA and plotted as fold induction over vehicle treated control. Data is mean±SEM of three independent experiments performed in triplicates. **p<0.01 as determined by two tailed unpaired student's t-test.
as §1
Adiponectin has previously been described to enhance mitochondrial function in adipose tissues and induces its thermogenic potential and therefore causes a conversion towards brown adipose phenotype characterized by an increase in UCPs, in particular UCP-1 (I. B. Bauche, S. A. E. Mkadem, A-M. Pottier, M. Senou, M-C. Many, R. Rersohazy, L. Penicaud, N. Maeda; T. Funahashi, S. M. Brichard. Endocrinology 148(4):1539-1549. 2007). Therefore, the ability of ULMA to induce UCP-1 and 2 in different stages of adipocyte differentiation was checked. We also checked other brown adipose markers such as PGC-1α and PR domain containing 16 (PRDM16). 3T3L-1 mouse pre-adipocyte cells (ATCC, CL-173) maintained in growth medium (DMEM with 4.5 mg/ml glucose, 4.0 mM glutamine, 1 mM sodium pyruvate, 10% FBS and 1× antibiotic-antimycotic solution (all reagents from invitrogen)) were plated in 6 well plates and allowed to reach full confluence. […] After two days of incubation in differentiation medium, this medium was replaced with insulin medium (DMEM, 10% FBS, plus 1.5 μg/ml insulin) and the cells were incubated in insulin medium for 2 days and then the insulin medium was replaced with growth medium and the cells were then cultured for total of 10 days (from day 0). For ULMA treatment, the cells were treated on day 0 (the day on which differentiation medium was added), and the treatment was continued for a total of 10 days. In all cases, medium was replaced with fresh medium containing vehicle (0.1% DMSO) or 10 nM ULMA every day. After 10 days from day 0, cells were washed in cold PBS and RNA was extracted using trizol reagent using standard procedure following which cDNA synthesis was done and transcript expression was determined using QRT-PCR as described above.
as §2

[3] = differentiated in presence of ULMA, 10 d
[4] = 10 nM, 10 days of differentiation
[5] = differentiated in presence of ULMA, 10 days

SMILES: O=C1c2c(cc(O)c([C@@H]3O[C@H](CO)[C@@H](O)[C@H](O)[C@H]3O)c2O)O[C@@H](c2ccc(O)c(O)c2)[C@@H]1O [ULMA, (2S,3S)-(+)-3′,4′,5,7-tetrahydroxydihydroflavonol-6-C-β-D-glucopyranoside]
- PGC-1α mRNA level ([1]; 10 nM, 10 d differentiation): significant increase
- PRDM16 mRNA level ([1]; 10 nM, 10 d differentiation): significant increase
- UCP-1 mRNA level ([1]; 10 nM, 10 d differentiation): significant increase
- UCP-2 mRNA level ([1]; 10 nM, 10 d differentiation): significant increase
- mitochondrial DNA copy number (cytb level) ([1]; 10 nM, differentiated mouse SVFs): significantly higher
- PGC-1α protein level [1, 3]: elevated
- UCPs protein level [1, 3]: elevated
- body weight compared to vehicle treated control mice (db/db mice): significantly reduced body weight
- PGC-1α mRNA level [2, 4]: significant increase
- PRDM16 mRNA level [2, 4]: significant increase
- UCP-1 mRNA level [2, 4]: significant increase
- UCP-2 mRNA level [2, 4]: significant increase
- PGC-1α protein level [2, 5]: elevated
- UCPs protein level [2, 5]: elevated
